Tests used:
tumor [1] = experiment: Intraoperative NIR imaging of patients given intravenous VGT-309 before surgery (Examples 1-3); assay type: in vivo, human
cancerous tissue = experiment: Preclinical / animal model studies: duration of VGT-309 fluorescence in tissue after administration; assay type: in vivo
Excerpt: There are several molecular imaging agents that are currently in various stages of development and testing, but of these agents VGT-309 is particularly advantageous. VGT-309 targets and covalently binds to cathepsin targets, which are present in larger amounts in solid tumors and tumor margins than in normal tissues. When this binding occurs, the quencher is cleaved from the molecule and VGT-309 becomes “active” at which point the tumor will fluoresce under near-infrared (NIR) light.

tumor [2] = experiment: Phase 2 study: clinically significant events (CSEs) during tumor removal with imaging agent and NIR; assay type: in vivo, human; conditions: Phase 2 study of VGT-309 in Australia
Excerpt: CSEs are one way to measure whether an imaging agent, such as VGT-309, adds a clinical benefit to the diagnosis and treatment process. In this context, CSEs generally fall into one of three categories: (1) localization of hard-to-find tumors, (2) identification of positive resection margins, and (3) identification of additional primary and metastatic lesions that were not previously detected using existing technologies.

CC1(C)C(/C=C/C2=C(Cl)C(=C/C=C3/N(CCCCCC(=O)NCCNC(=O)c4c(F)c(F)c(OCC(=O)[C@H](CCCCNC(=O)CCCCCN5/C(=C/C=C/C=C/C=C\C6=[N+](CCCCS(=O)(=O)[O-])c7ccc8ccccc8c7C6(C)C)C(C)(C)c6c5ccc5ccccc65)NC(=O)[C@H](Cc5ccccc5)NC(=O)OCc5ccccc5)c(F)c4F)c4ccc5cc(S(=O)(=O)O)ccc5c4C3(C)C)/CCC2)=[N+](CCCS(=O)(=O)[O-])c2ccc(N(CCCS(=O)(=O)O)CCCS(=O)(=O)O)cc21 [VGT-309]
visualization of tumor under NIR imaging (tumor [1]; Example 1, patient, 0.32 mg/kg approximately 21 hours prior to surgery): clearly show the location and extent of the tumor | localization of primary tumor under NIR (tumor [1]; Example 2, patient, 0.16 mg/kg approximately 21 hours prior to surgery): more easily locate the primary tumor | detection of lymph node spread by fluorescence under NIR (tumor [1]; Example 2, patient, 0.16 mg/kg approximately 21 hours prior to surgery, biopsy confirmed that the cancer had spread): unexpected fluorescence in a more distant lymph node | identification of previously identified (primary) tumor (tumor [1]; Example 3, patient with regrowth after radiation, 0.32 mg/kg approximately 18.5 hours prior to surgery): able to quickly identify and remove the previously identified tumor | identification of additional tumors (metastatic spread) using NIR (tumor [1]; Example 3, patient, 0.32 mg/kg approximately 18.5 hours prior to surgery, abnormal lung tissue confirmed cancerous under NIR): able to identify additional tumors using NIR | time VGT-309 may continue to emit a signal in tissue following administration (cancerous tissue; animal model studies suggest): out to seven days | time window after administration in which VGT-309 can fluoresce cancerous tissue (cancerous tissue; based on preclinical studies, under NIR light): two hours to four days | fraction of patients who experienced a clinically significant event (CSE) (tumor [2]): one third
